According to US8188008B2, “Herbicidally and insecticidally active 4-phenyl-substituted pyridazinones” (Bayer Cropscience AG, priority 2008, dated 2012):

Tested on: green peach aphid (Myzus persicae)
Assay: Myzus test (MYZUPE spray treatment)
Format: in vivo
Conditions: spray treatment of Chinese cabbage discs, application rate 500 g/ha; 100% = all aphids killed
Experimental: Myzus Test (MYZUPE Spray Treatment) [table] To produce a suitable preparation of active compound, 1 part by weight of active compound is mixed with the stated amounts of solvents and emulsifier, and the concentrate is diluted with emulsifier-containing water to the desired concentration. Discs of Chinese cabbage (Brassica pekinensis) which are infested by all stages of the green peach aphid (Myzus persicae) are sprayed with an active compound preparation of the desired concentration. After the desired period of time, the effect in % is determined. 100% means that all aphids have been killed; 0% means that none of the aphids have been killed.

With `Cn1ncc(O)c(-c2ccc(Cl)c(Cl)c2)c1=O` [I-1-a-4] the “effect in % (aphids killed)” value was “at least 80%”.
